Data from ChEMBL document CHEMBL1135808, “A new type of mixed anhydride and its applications to the synthesis of 7-substituted 8-chloro-5,5-dioxoimidazo[1,2-b][1,4,2]benzodithiazines with in vitro antitumor activity” (2002).

These compounds were tested on NCI-H46 (assay: Log of molar concentration leading to 50% cell death against non-small-cell lung cancer […] cell line was reported). Details: Homo sapiens, read-out: Log LC50 (the source's name) (converted).
Assay type: functional
In the case of `Cc1ccc2cccc(NC(=O)c3cc4c(cc3Cl)Sc3nccn3S4(=O)=O)c2n1`, the CC50 is reported as 26.9 µM.

These compounds were tested on EKVX (assay: In vitro growth inhibition against non-small-cell lung cancer EKVX cell line was reported.). Details: Homo sapiens.
Assay type: functional
Compound `Cc1ccc2cccc(NC(=O)c3cc4c(cc3Cl)Sc3nccn3S4(=O)=O)c2n1` has a GI50 of 17 µM.

These compounds were tested on RPMI-8226 (assay: Log of molar concentration leading to 50% cell death against leukemia […] cell line was reported). Details: Homo sapiens, read-out: Log LC50 (the source's name) (converted).
Assay type: functional
`Cc1ccc2cccc(NC(=O)c3cc4c(cc3Cl)Sc3nccn3S4(=O)=O)c2n1` showed a CC50 of 8.51 µM.

These compounds were tested on HCC 2998 (assay: In vitro growth inhibition against colon cancer HCC2998 cell line was reported.). Details: Homo sapiens.
Assay type: functional
In the case of `Cc1ccc2cccc(NC(=O)c3cc4c(cc3Cl)Sc3nccn3S4(=O)=O)c2n1`, the GI50 is reported as 1.82 µM.

The compounds below were run on HL-60 (assay: Log of molar concentration leading to 50% cell death against leukemia HL-60(TB) cell line was reported). Details: Homo sapiens, read-out: Log LC50 (the source's name) (converted).
Assay type: functional
Compound `Cc1ccc2cccc(NC(=O)c3cc4c(cc3Cl)Sc3nccn3S4(=O)=O)c2n1` has a CC50 of 3.8 µM.

Each compound was assayed on SK-MEL-28 (assay: Log of molar concentration leading to 50% cell death against melanoma SK-MEL-28 cell line was reported). Details: Homo sapiens, read-out: Log LC50 (the source's name) (converted).
Assay type: functional
`Cc1ccc2cccc(NC(=O)c3cc4c(cc3Cl)Sc3nccn3S4(=O)=O)c2n1` was tested, and the CC50 was 75.9 µM.

These compounds were tested on SK-MEL-5 (assay: Log of molar concentration leading to 50% cell death against melanoma SK-MEL-5 cell line was reported). Details: Homo sapiens, read-out: Log LC50 (the source's name) (converted).
Assay type: functional
`Cc1ccc2cccc(NC(=O)c3cc4c(cc3Cl)Sc3nccn3S4(=O)=O)c2n1` gave a CC50 of 50.1 µM.

What follows are compounds tested on MCF7 (assay: Log of molar concentration leading to 50% cell death against breast cancer MCF 7 cell line was reported). Details: Homo sapiens, read-out: Log LC50 (the source's name) (converted).
Assay type: functional
Compound `Cc1ccc2cccc(NC(=O)c3cc4c(cc3Cl)Sc3nccn3S4(=O)=O)c2n1` has a CC50 of 38.9 µM.

The compounds below were run on CCRF-CEM (assay: In vitro growth inhibition against leukemia CCRF-CEM cell line was reported.). Details: Homo sapiens.
Assay type: functional
Work on `Cc1ccc2cccc(NC(=O)c3cc4c(cc3Cl)Sc3nccn3S4(=O)=O)c2n1` yielded a GI50 of 2.51 µM.

Each compound was assayed on IGROV-1 (assay: Log of molar concentration leading to 50% cell death against ovarian cancer IGROV1 cell line was reported). Details: Homo sapiens, read-out: Log LC50 (the source's name) (converted).
Assay type: functional
With `Cc1ccc2cccc(NC(=O)c3cc4c(cc3Cl)Sc3nccn3S4(=O)=O)c2n1` the CC50 was 23.4 µM.

These compounds were tested on COLO 205 (assay: In vitro growth inhibition against colon cancer COLO 205 cell line was reported.). Details: Homo sapiens.
Assay type: functional
`Cc1ccc2cccc(NC(=O)c3cc4c(cc3Cl)Sc3nccn3S4(=O)=O)c2n1` gave a GI50 of 17 µM.

Each compound was assayed on M14 (assay: In vitro total growth inhibition against melanoma M14 cell lines was reported.). Details: Homo sapiens, read-out: Log TGI (converted).
Assay type: functional
With `Cc1ccc2cccc(NC(=O)c3cc4c(cc3Cl)Sc3nccn3S4(=O)=O)c2n1` the TGI was 22.9 µM.

What follows are compounds tested on CAKI-1 (assay: In vitro total growth inhibition against renal cancer CAKI-1cell lines was reported.). Details: Homo sapiens, read-out: Log TGI (converted).
Assay type: functional
`Cc1ccc2cccc(NC(=O)c3cc4c(cc3Cl)Sc3nccn3S4(=O)=O)c2n1` was tested, and the TGI was 63.1 µM.

Each compound was assayed on SF-295 (assay: Log of molar concentration leading to 50% cell death against CNS cancer SF-295 cell line was reported). Details: Homo sapiens, read-out: Log LC50 (the source's name) (converted).
Assay type: functional
In the case of `Cc1ccc2cccc(NC(=O)c3cc4c(cc3Cl)Sc3nccn3S4(=O)=O)c2n1`, the CC50 is reported as 53.7 µM.

The compounds below were run on MDA-MB-231 (assay: In vitro total growth inhibition against breast cancer MDA-MB-231/ATCC cell lines was reported.). Details: Homo sapiens, read-out: Log TGI (converted).
Assay type: functional
Compound `Cc1ccc2cccc(NC(=O)c3cc4c(cc3Cl)Sc3nccn3S4(=O)=O)c2n1` has a TGI of 24 µM.

Each compound was assayed on SN12C (assay: In vitro growth inhibition against renal cancer SN12C cell line was reported.). Details: Homo sapiens.
Assay type: functional
`Cc1ccc2cccc(NC(=O)c3cc4c(cc3Cl)Sc3nccn3S4(=O)=O)c2n1` was tested, and the GI50 was 12.3 µM.

The compounds below were run on DU-145 (assay: In vitro growth inhibition against prostate cancer […] cell line was reported.). Details: Homo sapiens.
Assay type: functional
Compound `Cc1ccc2cccc(NC(=O)c3cc4c(cc3Cl)Sc3nccn3S4(=O)=O)c2n1` has a GI50 of 5.5 µM.

These compounds were tested on OVCAR-3 (assay: Log of molar concentration leading to 50% cell death against ovarian cancer OVCAR-3 cell line was reported). Details: Homo sapiens, read-out: Log LC50 (the source's name) (converted).
Assay type: functional
In the case of `Cc1ccc2cccc(NC(=O)c3cc4c(cc3Cl)Sc3nccn3S4(=O)=O)c2n1`, the CC50 is reported as 34.7 µM.

What follows are compounds tested on UACC-62 (assay: Log of molar concentration leading to 50% cell death against melanoma UACC-62 cell line was reported). Details: Homo sapiens, read-out: Log LC50 (the source's name) (converted).
Assay type: functional
`Cc1ccc2cccc(NC(=O)c3cc4c(cc3Cl)Sc3nccn3S4(=O)=O)c2n1` showed a CC50 of 67.6 µM.

Each compound was assayed on SK-OV-3 (assay: In vitro growth inhibition against ovarian cancer SK-OV-3 cell line was reported.). Details: Homo sapiens.
Assay type: functional
Work on `Cc1ccc2cccc(NC(=O)c3cc4c(cc3Cl)Sc3nccn3S4(=O)=O)c2n1` yielded a GI50 of 26.9 µM.

The compounds below were run on UO-31 (assay: In vitro total growth inhibition against renal cancer UO-31 cell lines was reported.). Details: Homo sapiens, read-out: Log TGI (converted).
Assay type: functional
In the case of `Cc1ccc2cccc(NC(=O)c3cc4c(cc3Cl)Sc3nccn3S4(=O)=O)c2n1`, the TGI is reported as 42.7 µM.

What follows are compounds tested on BT-549 (assay: In vitro growth inhibition against breast cancer BT 549 cell line was reported.). Details: Homo sapiens.
Assay type: functional
With `Cc1ccc2cccc(NC(=O)c3cc4c(cc3Cl)Sc3nccn3S4(=O)=O)c2n1` the GI50 was 11.5 µM.

These compounds were tested on COLO 205 (assay: Log of molar concentration leading to 50% cell death against colon cancer COLO 205 cell line was reported). Details: Homo sapiens, read-out: Log LC50 (the source's name) (converted).
Assay type: functional
Work on `Cc1ccc2cccc(NC(=O)c3cc4c(cc3Cl)Sc3nccn3S4(=O)=O)c2n1` yielded a CC50 of 55 µM.

The compounds below were run on SF-539 (assay: In vitro growth inhibition against CNS cancer SF-539 cell line was reported.). Details: Homo sapiens.
Assay type: functional
`Cc1ccc2cccc(NC(=O)c3cc4c(cc3Cl)Sc3nccn3S4(=O)=O)c2n1` was tested, and the GI50 was 1.82 µM.

What follows are compounds tested on HCC 2998 (assay: Log of molar concentration leading to 50% cell death against colon cancer HCC2998 cell line was reported). Details: Homo sapiens, read-out: Log LC50 (the source's name) (converted).
Assay type: functional
In the case of `Cc1ccc2cccc(NC(=O)c3cc4c(cc3Cl)Sc3nccn3S4(=O)=O)c2n1`, the CC50 is reported as 14.5 µM.

These compounds were tested on CAKI-1 (assay: In vitro growth inhibition against renal cancer CAKI-1 cell line was reported.). Details: Homo sapiens.
Assay type: functional
`Cc1ccc2cccc(NC(=O)c3cc4c(cc3Cl)Sc3nccn3S4(=O)=O)c2n1` gave a GI50 of 23.4 µM.

The compounds below were run on MDA-N (assay: In vitro total growth inhibition against breast cancer MDA-N cell lines was reported.). Details: Homo sapiens, read-out: Log TGI (converted).
Assay type: functional
With `Cc1ccc2cccc(NC(=O)c3cc4c(cc3Cl)Sc3nccn3S4(=O)=O)c2n1` the TGI was 91.2 µM.

What follows are compounds tested on SK-MEL-28 (assay: In vitro growth inhibition against melanoma SK-MEL-28 cell line was reported.). Details: Homo sapiens.
Assay type: functional
In the case of `Cc1ccc2cccc(NC(=O)c3cc4c(cc3Cl)Sc3nccn3S4(=O)=O)c2n1`, the GI50 is reported as 9.55 µM.

The compounds below were run on SK-MEL-5 (assay: In vitro growth inhibition against melanoma SK-MEL-5 cell line was reported.). Details: Homo sapiens.
Assay type: functional
With `Cc1ccc2cccc(NC(=O)c3cc4c(cc3Cl)Sc3nccn3S4(=O)=O)c2n1` the GI50 was 10.7 µM.

The compounds below were run on SK-MEL-5 (assay: In vitro total growth inhibition against melanoma SK-MEL-5 cell lines was reported.). Details: Homo sapiens, read-out: Log TGI (converted).
Assay type: functional
Compound `Cc1ccc2cccc(NC(=O)c3cc4c(cc3Cl)Sc3nccn3S4(=O)=O)c2n1` has a TGI of 23.4 µM.
